# Measurements reported in patent US20150202179A1, “FATTY ACID DERIVATIVES FOR USE IN A METHOD OF TREATING DEPRESSION AND ASSOCIATED CONDITIONS” (YISSUM RESEARCH DEVELOPMENT COMPANY OF THE HEBREW …, priority 2012, published 2015).
# Like-named read-outs stand apart in the source and are kept apart here.
# Tests used:
# [1] = system: Norepinephrine (NE) levels; assay: Norepinephrine (NE) determination in brain tissue by HPLC with electrochemical detection; assay type: in vivo, mice; conditions: for NE: ng/g wet tissue +/− SEM; for norepinephrine levels in the hippocampus vs. control / norepinephrine levels in the hypothalamus vs. control: result in words
# Experimental: (§1) Solution of DHBA as internal standard in the concentration of: 1 μg/ml in 0.1M perchloric acid, were prepared. Standard solutions of NE and 5HT in the concentration of 1-0.1 μg/ml in 0.1M perchloric acid were prepared.
# (§2) Tissues (hypothalamus and hippocampus) obtained from 6-8 mice were dissected on ice surface and kept at −80 C. Hypothalamus (HT) or hippocampus (HC) from 1 mice were weighted (weight of HT −10-20 mg, HC 30-40 mg) and placed in eppendorf micro-centrifuge tube, 1.5 ml. To each tube was added 120-160 μl of ice cold solution of Perchloric acid and DHBA, homogenized in ice bath on Sonics vibra cell, 3×20 sec., 0.4 watts and centrifuged at 14,000×g at 4° C. 10 min. Supernatant gained was stored in ice before analysis.
# (§3) The HPLC system consisted of Jasco PU-980 pump, Jasco AS-950-10 autosampler cooled at 4° C., H3 ODS-125A 3 μm 125 mm×4.6 mm i.d. analytical column (Hichrom, UK) were used. Electrochemical detector Coulochem ESA 5100A with analytical cell model 5011 was used for control detector voltage and record the current. Working electrode was set at potential +350 mV. Control and data collection/processing were handled through Borwin chromatography software.
# (§4) The mobile phase composition: A stock buffer was prepared as follows: 20 mM sodium dihydrogenorthophosphate, EDTA 3 mg/l, 1-heptanesulfonic acid 1 g/l were dissolved in 1 liter deionized distilled water and buffered to pH 3.7 using concentrated phosphoric acid. To prepare the mobile phase buffer was mixed with acetonitrile (Baker HPLC analyzed) in the ratio 85:15 (v/v), filtered through a 0.2 μm membrane filter and degassed under vacuum after mixing. Mobile phase flow rate 1 ml/min. Injection volume 20 μl, retention time for DHBA 4.2 min., norepinephrine—3.1 min., 5HT 8.6 min. For calibration curve 1 ug/ml solution of DHBA together with 1.0-0.1 μg/ml solutions of 5HT and NE were used. The ratio between 5HT or NE and DHBA used to calculate the level of 5HT and NE in the sample. Date are given in ng/g wet tissue +/−SEM.
# serotonin (5HT) levels = assay: Serotonin (5HT) determination in brain tissue by HPLC with electrochemical detection; assay type: in vivo, mice; conditions: for 5HT: ng/g wet tissue +/− SEM; for 5HT levels in the hippocampus vs. control / 5HT levels in the hypothalamus vs. control: result in words
# Experimental: as §1, §2, §3, §4
# [2] = Forced Swim Test, compound X dose study; assay type: in vivo, BALB/c mice; conditions: day 11
# Experimental: Forced swim test (FST): The animal is placed in a circular, transparent, plexiglass tank measuring 21 cm in diameter and 46 cm in height containing water 15 cm high, maintained at 23-25° C. […] Also measured is the latency period, the time elapsing, for each animal from immersion in the water tank until the first occurrence of immobility. Since climbing activity is minimal in mice, […].
# 50, 2 month old BALB/c mice, 10 mice per group, on ad libitum diet were divided to 5 experimental groups with equal weight. On the 2, 3, 4, 5, 9, 11, 16, 18, 23, 25, 29, 31 days mice were administered with either vehicle or compound X 0.1, 1, 10 mg/kg i.p. or imipramine 10 mg/kg. Forced Swim Test was evaluated on day 11.
# [3] = Weight and food consumption in Sabra mice; assay type: in vivo
# Experimental: 140 Female Sabra Mice 12 weeks old are divided to […] 10 mice in each group with equal weight. Mice are administered I.P. with either saline or 1 mg/kg Fluoxetine (PROZAC), compound 1, 4, 5, 7, 10, 11, 12, 13, 14, 15, 19, 26 for a 4 weeks period. On day 30 and on, mice were tested by the following behavioral tests. […]
# P-AMPK protein = P-AMPK protein levels by western blot; assay type: in vivo, BALB/c mice
# Experimental: 50, 2 month old female BALB/c mice, 10 mice per group, on ad libitum diet were separated (each mouse in a different cage) for 9 days (Separation Stress, a model for depression). On the 7, 8, 9, 34-40 days mice were administered with either vehicle or compounds x, 12 and 15 (1 mg/kg i.p.) or imipramine 10 mg/kg (antidepressant). P-AMPK protein was monitored by western blot. […] (p<0.05a).
# [4] = Novelty Suppressed Feeding Test (NSFT), separated BALB/c mice; assay type: in vivo; conditions: compounds 1 mg/kg i.p., day 9
# Experimental: (§5) Novelty suppressed feeding test (NSFT): After the last treatment injection, all food is removed from the cage for 24 hours (water available ad libitum). At the end of this time, the animal is introduced into a 50×50×20 (height) cm wooden arena the floor of which is marked with equal rectangles of 10×10 cm. A pellet of food is placed on an elevated surface in the center of the arena. The time elapsing from the introduction of the animal into the arena until it commences eating (latency to feed) is recorded. The animal is removed from the arena immediately after it begins to eat or after not doing so for 5 min. During the test, the number of lines crossed by the animal is counted as a measure of motor activity, and calibrated for 5 min if the animal started eating before that. After the test, the animal is immediately transferred to its home cage and left to consume a previously weighed amount of food for 10 minutes. On completion of this period the food is weighed again to calculate the home cage food consumption.
# 50, 2 month old female BALB/c mice, 10 mice per group, on ad libitum diet were separated (each mouse in a different cage) for 9 days (Separation Stress, a model for depression). On the 7, 8, 9, 34-40, days mice were administered with either vehicle or compounds x, 12 and 15 (1 mg/kg i.p.) or imipramine 10 mg/kg (antidepressant) i.p. and tested in Novel Suppressed Feeding Test on day 9.
# as §5, with “FIGS. 9A-9C show the results of the NSFT. […]” for “Novelty suppressed feeding test (NSFT):”, “hours.” for “hours (water available ad libitum).”, “into” for “into a 50×50×20 (height) cm wooden arena”, “open field test.” for “floor of which is marked with equal rectangles of 10×10 cm.”, “to find” for “elapsing from”, “food was” for “introduction of the animal into the arena until it commences eating (latency to feed) is”
smiles,measurement,setting,value
"CCCCCCCC/C=C\CCCCCCCC(=O)N[C@H](CO)C(C)C [Compound 1, oleoyl-L-valinol amide]",NE,[1]; Hippocampus,283.28 ± 24 ng/g
same,NE,[1]; Hypothalamus,1090 ± 10.4 ng/g
same,norepinephrine levels in the hippocampus vs. control,[1],significantly enhanced
same,norepinephrine levels in the hippocampus vs. control,[1]; listed as X,increase significantly
same,norepinephrine levels in the hypothalamus vs. control,[1],significantly enhanced
same,norepinephrine levels in the hypothalamus vs. control,[1]; listed as X,increased significantly
same,5HT,serotonin (5HT) levels; Hippocampus,342.2 ± 33 ng/g
same,5HT,serotonin (5HT) levels; Hypothalamus,854.4 ± 16.8 ng/g
same,5HT levels in the hippocampus vs. control,serotonin (5HT) levels,significantly enhanced
same,5HT levels in the hippocampus vs. control,serotonin (5HT) levels; listed as X,increased significantly
same,5HT levels in the hypothalamus vs. control,serotonin (5HT) levels,significantly enhanced
same,5HT levels in the hypothalamus vs. control,serotonin (5HT) levels; listed as X,increased significantly
same,swimming activity in forced swim test,[2]; 0.1 mg/kg i.p.,improved significantly swimming activity
same,swimming activity in forced swim test,"[2]; 1 mg/kg i.p., better than imipramine 10 mg/kg",improved significantly swimming activity
same,swimming activity in forced swim test,"[2]; 10 mg/kg i.p., better than imipramine 10 mg/kg",improved significantly swimming activity
same,food consumption,[3],significant decrease
same,weight (weight loss),[3],significant decrease
same,weight (weight loss),[3]; listed as OVA,decreased body weight
same,weight (weight loss),[3]; listed as X,significant weight loss
same,P-AMPK protein in the hippocampus,"P-AMPK protein; hippocampus, FIG. 14A",significant increase
same,P-AMPK protein in the hypothalamus,"P-AMPK protein; hypothalamus, FIG. 14B",significant increase
same,food intake in NSFT,[4]; in relation to vehicle and more than imipramine 10 mg/kg,significantly enhanced food intake
same,motor activity in NSFT,[4]; resembled imipramine 10 mg/kg,enhanced motor activity
